Experimental data: ChEMBL document CHEMBL3991601, “The target landscape of clinical kinase drugs” (Science, 2017)
Activity calls are given as the source filed them. On the calls: in the data inactive means no Kd found up to 30 µM.

The compounds below were run against G protein-coupled receptor kinase 6 (Homo sapiens, UniProt P43250).
With `CCCS(=O)(=O)Nc1ccc(F)c(C(=O)c2c[nH]c3ncc(-c4ccc(Cl)cc4)cc23)c1F` [VEMURAFENIB] the Kd was > 30 µM (inactive).

The compounds below were run against T1, Eukaryotic translation initiation factor 5B (Homo sapiens, UniProt O60841).
T1 sequence (O60841 whole entry): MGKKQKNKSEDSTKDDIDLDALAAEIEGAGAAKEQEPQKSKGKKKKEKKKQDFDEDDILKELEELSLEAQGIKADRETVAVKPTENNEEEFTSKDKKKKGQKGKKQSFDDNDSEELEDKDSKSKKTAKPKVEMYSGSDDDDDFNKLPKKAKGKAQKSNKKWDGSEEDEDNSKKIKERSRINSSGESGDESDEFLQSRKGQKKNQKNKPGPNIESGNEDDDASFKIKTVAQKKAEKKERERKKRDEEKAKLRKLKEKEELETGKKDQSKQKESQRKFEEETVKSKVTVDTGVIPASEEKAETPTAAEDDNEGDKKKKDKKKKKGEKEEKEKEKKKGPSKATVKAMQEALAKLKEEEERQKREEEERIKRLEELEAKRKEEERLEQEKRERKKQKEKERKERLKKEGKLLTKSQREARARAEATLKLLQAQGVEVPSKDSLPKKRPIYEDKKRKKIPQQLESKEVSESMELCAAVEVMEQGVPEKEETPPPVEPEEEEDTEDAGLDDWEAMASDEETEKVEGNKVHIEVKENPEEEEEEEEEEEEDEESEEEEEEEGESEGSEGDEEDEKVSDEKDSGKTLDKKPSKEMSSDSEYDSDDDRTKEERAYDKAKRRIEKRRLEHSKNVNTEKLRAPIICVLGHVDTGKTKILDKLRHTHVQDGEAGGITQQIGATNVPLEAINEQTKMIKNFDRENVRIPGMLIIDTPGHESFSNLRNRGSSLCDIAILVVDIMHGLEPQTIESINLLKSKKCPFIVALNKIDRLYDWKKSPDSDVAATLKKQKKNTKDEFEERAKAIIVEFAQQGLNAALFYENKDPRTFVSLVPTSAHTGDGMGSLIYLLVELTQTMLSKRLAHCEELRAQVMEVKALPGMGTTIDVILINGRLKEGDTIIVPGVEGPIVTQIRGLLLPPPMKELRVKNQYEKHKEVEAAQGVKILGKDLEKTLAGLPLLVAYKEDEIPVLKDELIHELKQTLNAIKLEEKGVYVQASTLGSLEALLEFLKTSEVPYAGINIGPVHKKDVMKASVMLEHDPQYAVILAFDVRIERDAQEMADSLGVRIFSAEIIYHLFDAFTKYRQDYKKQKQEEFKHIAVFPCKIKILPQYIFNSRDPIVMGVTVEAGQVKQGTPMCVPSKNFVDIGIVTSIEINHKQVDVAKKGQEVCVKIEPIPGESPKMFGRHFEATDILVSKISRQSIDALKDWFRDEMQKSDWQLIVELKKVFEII
`CNS(=O)(=O)Nc1nccc(Cc2c(C)c3ccc(Oc4ncccn4)cc3oc2=O)c1F` [AVUTOMETINIB] was tested, and the Kd was > 30 µM (inactive).

What follows are compounds tested against Myosin-10 (Homo sapiens, UniProt P35580).
Myosin-10, sequence (P35580 whole entry): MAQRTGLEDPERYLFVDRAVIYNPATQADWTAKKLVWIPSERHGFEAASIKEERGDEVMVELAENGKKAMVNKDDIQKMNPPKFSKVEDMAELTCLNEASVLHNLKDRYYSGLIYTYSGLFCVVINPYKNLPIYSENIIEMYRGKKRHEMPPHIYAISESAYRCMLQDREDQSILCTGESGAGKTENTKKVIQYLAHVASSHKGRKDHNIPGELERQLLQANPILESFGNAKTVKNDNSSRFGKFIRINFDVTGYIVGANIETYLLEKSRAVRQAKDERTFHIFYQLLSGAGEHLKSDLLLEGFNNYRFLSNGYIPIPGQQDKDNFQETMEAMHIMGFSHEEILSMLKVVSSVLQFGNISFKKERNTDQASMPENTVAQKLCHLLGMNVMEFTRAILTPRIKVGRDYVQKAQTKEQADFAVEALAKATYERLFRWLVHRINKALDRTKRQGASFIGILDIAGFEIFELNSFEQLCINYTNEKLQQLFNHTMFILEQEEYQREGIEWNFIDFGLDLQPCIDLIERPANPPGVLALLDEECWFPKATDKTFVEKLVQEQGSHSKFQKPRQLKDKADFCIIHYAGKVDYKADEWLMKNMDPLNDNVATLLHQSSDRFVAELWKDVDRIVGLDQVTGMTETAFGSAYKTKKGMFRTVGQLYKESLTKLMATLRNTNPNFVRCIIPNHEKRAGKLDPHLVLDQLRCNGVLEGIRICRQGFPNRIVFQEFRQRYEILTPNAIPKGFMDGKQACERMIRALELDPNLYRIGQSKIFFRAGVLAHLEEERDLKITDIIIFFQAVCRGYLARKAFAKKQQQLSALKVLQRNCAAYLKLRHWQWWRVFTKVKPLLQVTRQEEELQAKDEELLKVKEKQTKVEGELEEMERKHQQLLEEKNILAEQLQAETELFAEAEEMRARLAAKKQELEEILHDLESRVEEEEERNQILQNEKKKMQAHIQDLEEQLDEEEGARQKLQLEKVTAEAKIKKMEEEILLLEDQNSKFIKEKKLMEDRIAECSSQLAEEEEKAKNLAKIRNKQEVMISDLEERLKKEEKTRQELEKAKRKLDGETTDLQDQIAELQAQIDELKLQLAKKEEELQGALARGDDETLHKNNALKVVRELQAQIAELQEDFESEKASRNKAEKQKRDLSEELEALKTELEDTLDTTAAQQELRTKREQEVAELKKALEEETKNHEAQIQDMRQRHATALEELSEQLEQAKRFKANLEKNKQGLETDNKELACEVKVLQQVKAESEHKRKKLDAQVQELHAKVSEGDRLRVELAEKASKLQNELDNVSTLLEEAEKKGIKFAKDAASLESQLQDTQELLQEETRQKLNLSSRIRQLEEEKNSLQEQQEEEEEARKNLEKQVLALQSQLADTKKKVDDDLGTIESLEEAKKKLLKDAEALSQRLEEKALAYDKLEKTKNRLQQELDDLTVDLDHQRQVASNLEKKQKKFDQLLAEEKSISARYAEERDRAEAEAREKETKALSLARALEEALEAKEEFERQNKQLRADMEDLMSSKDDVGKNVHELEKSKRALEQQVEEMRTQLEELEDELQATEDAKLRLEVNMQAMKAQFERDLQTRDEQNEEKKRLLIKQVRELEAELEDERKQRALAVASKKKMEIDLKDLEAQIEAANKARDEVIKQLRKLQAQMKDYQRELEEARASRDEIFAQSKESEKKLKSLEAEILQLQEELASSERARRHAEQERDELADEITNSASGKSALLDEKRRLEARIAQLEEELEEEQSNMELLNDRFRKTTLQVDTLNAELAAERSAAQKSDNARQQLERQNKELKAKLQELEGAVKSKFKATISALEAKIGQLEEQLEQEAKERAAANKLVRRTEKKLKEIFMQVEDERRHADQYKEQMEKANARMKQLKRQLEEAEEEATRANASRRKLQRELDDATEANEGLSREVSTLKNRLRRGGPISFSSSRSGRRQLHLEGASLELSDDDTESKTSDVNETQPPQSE
For `Cc1cc(-c2cc(O)ccc2Cl)cc2nnc(Nc3ccc(OCCN4CCCC4)cc3)nc12`, the Kd was > 30 µM (inactive).
With `CNS(=O)(=O)Nc1nccc(Cc2c(C)c3ccc(Oc4ncccn4)cc3oc2=O)c1F` [AVUTOMETINIB] the Kd was > 30 µM (inactive).
In the case of `CC(C)Nc1cc(-c2c[nH]c(C(=O)N[C@H](CO)c3cccc(Cl)c3)c2)c(Cl)cn1` [ULIXERTINIB], the Kd is reported as > 30 µM (inactive).
`CCCS(=O)(=O)Nc1ccc(F)c(C(=O)c2c[nH]c3ncc(-c4ccc(Cl)cc4)cc23)c1F` [VEMURAFENIB] was tested, and the Kd was > 30 µM (inactive).

These compounds were tested against PAS domain-containing serine/threonine-protein kinase (Homo sapiens, UniProt Q96RG2).
PAS domain-containing serine/threonine-protein kinase, sequence (Q96RG2 whole entry, the tested form may be a part): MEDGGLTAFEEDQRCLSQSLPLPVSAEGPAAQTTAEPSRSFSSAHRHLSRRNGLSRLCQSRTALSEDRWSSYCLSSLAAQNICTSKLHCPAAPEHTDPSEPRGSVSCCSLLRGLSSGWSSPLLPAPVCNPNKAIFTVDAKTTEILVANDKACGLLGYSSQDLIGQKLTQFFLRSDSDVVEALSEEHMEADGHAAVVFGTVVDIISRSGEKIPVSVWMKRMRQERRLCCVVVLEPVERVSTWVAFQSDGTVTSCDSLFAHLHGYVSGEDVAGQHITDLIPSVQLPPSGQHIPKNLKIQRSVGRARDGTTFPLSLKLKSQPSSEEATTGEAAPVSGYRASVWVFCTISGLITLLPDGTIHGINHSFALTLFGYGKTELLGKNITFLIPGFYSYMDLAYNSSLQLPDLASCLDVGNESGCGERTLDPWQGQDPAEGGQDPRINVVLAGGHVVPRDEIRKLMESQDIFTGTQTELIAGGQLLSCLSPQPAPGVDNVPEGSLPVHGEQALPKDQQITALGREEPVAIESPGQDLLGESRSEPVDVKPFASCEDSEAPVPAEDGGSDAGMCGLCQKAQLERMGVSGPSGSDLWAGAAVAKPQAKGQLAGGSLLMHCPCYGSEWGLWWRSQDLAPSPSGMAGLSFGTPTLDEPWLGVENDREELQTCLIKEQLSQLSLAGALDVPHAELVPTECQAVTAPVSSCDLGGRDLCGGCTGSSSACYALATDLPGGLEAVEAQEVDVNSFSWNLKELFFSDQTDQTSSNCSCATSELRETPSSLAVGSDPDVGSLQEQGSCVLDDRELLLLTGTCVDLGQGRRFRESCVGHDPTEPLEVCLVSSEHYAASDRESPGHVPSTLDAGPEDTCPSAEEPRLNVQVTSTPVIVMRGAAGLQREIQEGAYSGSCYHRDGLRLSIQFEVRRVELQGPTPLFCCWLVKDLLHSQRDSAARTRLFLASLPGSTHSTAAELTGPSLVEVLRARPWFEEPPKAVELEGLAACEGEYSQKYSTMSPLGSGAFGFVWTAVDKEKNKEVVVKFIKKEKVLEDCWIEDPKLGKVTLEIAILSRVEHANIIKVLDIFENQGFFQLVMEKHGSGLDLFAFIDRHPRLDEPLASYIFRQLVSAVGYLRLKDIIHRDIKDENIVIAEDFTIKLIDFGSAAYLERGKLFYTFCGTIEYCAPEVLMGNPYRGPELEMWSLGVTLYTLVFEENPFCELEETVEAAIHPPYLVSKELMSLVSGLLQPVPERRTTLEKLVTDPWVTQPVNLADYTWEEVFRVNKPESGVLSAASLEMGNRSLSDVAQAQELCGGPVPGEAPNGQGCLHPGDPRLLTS
In the case of `Cc1cc(-c2cc(O)ccc2Cl)cc2nnc(Nc3ccc(OCCN4CCCC4)cc3)nc12`, the Kd is reported as > 30 µM (inactive).
With `CNS(=O)(=O)Nc1nccc(Cc2c(C)c3ccc(Oc4ncccn4)cc3oc2=O)c1F` [AVUTOMETINIB] the Kd was > 30 µM (inactive).
In the case of `CC(C)Nc1cc(-c2c[nH]c(C(=O)N[C@H](CO)c3cccc(Cl)c3)c2)c(Cl)cn1` [ULIXERTINIB], the Kd is reported as > 30 µM (inactive).

What follows are compounds tested against T2, Adenine phosphoribosyltransferase (Homo sapiens, UniProt P07741).
T2 sequence (P07741 whole entry): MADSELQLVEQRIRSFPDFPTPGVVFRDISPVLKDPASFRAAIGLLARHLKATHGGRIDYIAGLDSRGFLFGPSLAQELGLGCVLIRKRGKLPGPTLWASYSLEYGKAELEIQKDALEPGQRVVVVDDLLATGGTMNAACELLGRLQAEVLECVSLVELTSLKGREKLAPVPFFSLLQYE
`Cc1cc(-c2cc(O)ccc2Cl)cc2nnc(Nc3ccc(OCCN4CCCC4)cc3)nc12` was tested, and the Kd was > 30 µM (inactive).
In the case of `CNS(=O)(=O)Nc1nccc(Cc2c(C)c3ccc(Oc4ncccn4)cc3oc2=O)c1F` [AVUTOMETINIB], the Kd is reported as > 30 µM (inactive).
`CC(C)Nc1cc(-c2c[nH]c(C(=O)N[C@H](CO)c3cccc(Cl)c3)c2)c(Cl)cn1` [ULIXERTINIB] was tested, and the Kd was > 30 µM (inactive).
With `CCCS(=O)(=O)Nc1ccc(F)c(C(=O)c2c[nH]c3ncc(-c4ccc(Cl)cc4)cc23)c1F` [VEMURAFENIB] the Kd was > 30 µM (inactive).

These compounds were tested against Dual specificity testis-specific protein kinase 2 (Homo sapiens, UniProt Q96S53).
Dual specificity testis-specific protein kinase 2, sequence (Q96S53 whole entry): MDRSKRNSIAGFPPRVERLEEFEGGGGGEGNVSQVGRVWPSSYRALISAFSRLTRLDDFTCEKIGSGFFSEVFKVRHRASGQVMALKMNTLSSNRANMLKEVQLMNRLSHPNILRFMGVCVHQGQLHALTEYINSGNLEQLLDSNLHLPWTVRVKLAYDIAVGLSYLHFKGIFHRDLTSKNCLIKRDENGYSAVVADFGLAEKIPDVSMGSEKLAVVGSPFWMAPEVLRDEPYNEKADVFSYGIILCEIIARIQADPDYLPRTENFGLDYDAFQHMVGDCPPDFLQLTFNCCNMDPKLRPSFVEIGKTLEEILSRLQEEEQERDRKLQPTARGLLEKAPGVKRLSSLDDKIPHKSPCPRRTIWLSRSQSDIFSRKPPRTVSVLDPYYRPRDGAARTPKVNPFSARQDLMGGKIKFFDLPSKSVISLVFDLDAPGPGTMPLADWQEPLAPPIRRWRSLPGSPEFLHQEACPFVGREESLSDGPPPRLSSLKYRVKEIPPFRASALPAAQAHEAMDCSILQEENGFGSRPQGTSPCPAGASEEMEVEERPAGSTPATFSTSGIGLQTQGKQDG
For `Cc1cc(-c2cc(O)ccc2Cl)cc2nnc(Nc3ccc(OCCN4CCCC4)cc3)nc12`, the Kd was > 30 µM (inactive).
For `CNS(=O)(=O)Nc1nccc(Cc2c(C)c3ccc(Oc4ncccn4)cc3oc2=O)c1F` [AVUTOMETINIB], the Kd was > 30 µM (inactive).
`CC(C)Nc1cc(-c2c[nH]c(C(=O)N[C@H](CO)c3cccc(Cl)c3)c2)c(Cl)cn1` [ULIXERTINIB] was tested, and the Kd was > 30 µM (inactive).
In the case of `CCCS(=O)(=O)Nc1ccc(F)c(C(=O)c2c[nH]c3ncc(-c4ccc(Cl)cc4)cc23)c1F` [VEMURAFENIB], the Kd is reported as > 30 µM (inactive).

What follows are compounds tested against Serine/threonine-protein kinase 24 (Homo sapiens, UniProt Q9Y6E0).
Serine/threonine-protein kinase 24, sequence (Q9Y6E0 whole entry): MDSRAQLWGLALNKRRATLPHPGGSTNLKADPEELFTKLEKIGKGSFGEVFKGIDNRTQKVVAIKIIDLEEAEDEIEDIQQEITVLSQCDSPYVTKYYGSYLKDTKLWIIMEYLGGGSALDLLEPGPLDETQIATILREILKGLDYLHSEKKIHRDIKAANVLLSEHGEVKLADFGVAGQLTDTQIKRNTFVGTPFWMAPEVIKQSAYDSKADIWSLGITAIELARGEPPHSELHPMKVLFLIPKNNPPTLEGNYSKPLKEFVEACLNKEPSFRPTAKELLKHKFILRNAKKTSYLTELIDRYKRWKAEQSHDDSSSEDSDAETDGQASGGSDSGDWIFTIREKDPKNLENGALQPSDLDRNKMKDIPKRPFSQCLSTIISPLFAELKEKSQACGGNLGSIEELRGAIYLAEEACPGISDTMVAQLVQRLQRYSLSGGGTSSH
In the case of `Cc1cc(-c2cc(O)ccc2Cl)cc2nnc(Nc3ccc(OCCN4CCCC4)cc3)nc12`, the Kd is reported as > 30 µM (inactive).
`CNS(=O)(=O)Nc1nccc(Cc2c(C)c3ccc(Oc4ncccn4)cc3oc2=O)c1F` [AVUTOMETINIB] was tested, and the Kd was > 30 µM (inactive).
For `CC(C)Nc1cc(-c2c[nH]c(C(=O)N[C@H](CO)c3cccc(Cl)c3)c2)c(Cl)cn1` [ULIXERTINIB], the Kd was > 30 µM (inactive).

What follows are compounds tested against Uncharacterized aarF domain-containing protein kinase 5 (Homo sapiens, UniProt Q3MIX3).
`Cc1cc(-c2cc(O)ccc2Cl)cc2nnc(Nc3ccc(OCCN4CCCC4)cc3)nc12` was tested, and the Kd was > 30 µM (inactive).
In the case of `CNS(=O)(=O)Nc1nccc(Cc2c(C)c3ccc(Oc4ncccn4)cc3oc2=O)c1F` [AVUTOMETINIB], the Kd is reported as > 30 µM (inactive).
For `CC(C)Nc1cc(-c2c[nH]c(C(=O)N[C@H](CO)c3cccc(Cl)c3)c2)c(Cl)cn1` [ULIXERTINIB], the Kd was > 30 µM (inactive).
`CCCS(=O)(=O)Nc1ccc(F)c(C(=O)c2c[nH]c3ncc(-c4ccc(Cl)cc4)cc23)c1F` [VEMURAFENIB] was tested, and the Kd was > 30 µM (inactive).

These compounds were tested against T3, ATP-dependent RNA helicase DHX30 (Homo sapiens, UniProt Q7L2E3).
T3 sequence (Q7L2E3 whole entry): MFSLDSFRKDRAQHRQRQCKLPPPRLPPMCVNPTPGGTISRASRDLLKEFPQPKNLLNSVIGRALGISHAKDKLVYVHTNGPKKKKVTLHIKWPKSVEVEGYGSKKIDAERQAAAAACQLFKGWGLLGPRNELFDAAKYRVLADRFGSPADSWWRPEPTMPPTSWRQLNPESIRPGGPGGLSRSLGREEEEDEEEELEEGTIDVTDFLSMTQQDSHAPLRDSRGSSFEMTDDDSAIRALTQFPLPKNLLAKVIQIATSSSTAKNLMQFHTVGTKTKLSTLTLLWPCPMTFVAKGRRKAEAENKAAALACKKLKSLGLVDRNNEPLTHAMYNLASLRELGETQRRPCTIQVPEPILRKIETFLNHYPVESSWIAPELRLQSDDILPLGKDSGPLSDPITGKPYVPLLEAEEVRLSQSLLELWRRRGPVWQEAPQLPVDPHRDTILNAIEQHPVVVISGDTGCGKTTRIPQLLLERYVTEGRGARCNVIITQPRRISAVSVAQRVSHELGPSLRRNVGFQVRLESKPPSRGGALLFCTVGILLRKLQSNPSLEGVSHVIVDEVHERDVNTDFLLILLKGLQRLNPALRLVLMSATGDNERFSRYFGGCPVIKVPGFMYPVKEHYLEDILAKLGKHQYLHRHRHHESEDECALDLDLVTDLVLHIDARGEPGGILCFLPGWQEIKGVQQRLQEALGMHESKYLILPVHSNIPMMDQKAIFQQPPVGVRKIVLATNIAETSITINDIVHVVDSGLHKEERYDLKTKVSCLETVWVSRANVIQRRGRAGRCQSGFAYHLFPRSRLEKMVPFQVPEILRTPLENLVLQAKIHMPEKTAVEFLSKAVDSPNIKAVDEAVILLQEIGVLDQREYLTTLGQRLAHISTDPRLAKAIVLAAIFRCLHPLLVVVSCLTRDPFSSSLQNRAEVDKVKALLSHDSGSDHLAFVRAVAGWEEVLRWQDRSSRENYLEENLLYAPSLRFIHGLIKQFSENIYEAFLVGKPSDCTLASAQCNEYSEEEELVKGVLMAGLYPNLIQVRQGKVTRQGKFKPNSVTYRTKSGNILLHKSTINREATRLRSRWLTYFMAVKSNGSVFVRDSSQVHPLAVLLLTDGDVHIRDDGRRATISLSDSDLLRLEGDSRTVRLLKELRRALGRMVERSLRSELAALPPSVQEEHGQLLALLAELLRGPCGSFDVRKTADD
`Cc1cc(-c2cc(O)ccc2Cl)cc2nnc(Nc3ccc(OCCN4CCCC4)cc3)nc12` was tested, and the Kd was > 30 µM (inactive).
With `CNS(=O)(=O)Nc1nccc(Cc2c(C)c3ccc(Oc4ncccn4)cc3oc2=O)c1F` [AVUTOMETINIB] the Kd was > 30 µM (inactive).

These compounds were tested against Obg-like ATPase 1 (Homo sapiens, UniProt Q9NTK5).
Obg-like ATPase 1, sequence (Q9NTK5 whole entry, looked up): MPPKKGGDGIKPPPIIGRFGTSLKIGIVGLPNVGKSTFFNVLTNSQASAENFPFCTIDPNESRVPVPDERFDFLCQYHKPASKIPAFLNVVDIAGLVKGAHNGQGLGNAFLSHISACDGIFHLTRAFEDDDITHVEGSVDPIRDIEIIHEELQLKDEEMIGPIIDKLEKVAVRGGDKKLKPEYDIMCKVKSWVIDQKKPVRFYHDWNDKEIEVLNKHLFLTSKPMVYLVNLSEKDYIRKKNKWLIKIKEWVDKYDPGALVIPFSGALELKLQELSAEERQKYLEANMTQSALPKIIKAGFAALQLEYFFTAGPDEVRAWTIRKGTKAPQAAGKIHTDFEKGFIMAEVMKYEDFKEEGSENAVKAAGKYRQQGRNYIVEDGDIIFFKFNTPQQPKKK
`Cc1cc(-c2cc(O)ccc2Cl)cc2nnc(Nc3ccc(OCCN4CCCC4)cc3)nc12` was tested, and the Kd was > 30 µM (inactive).
With `CNS(=O)(=O)Nc1nccc(Cc2c(C)c3ccc(Oc4ncccn4)cc3oc2=O)c1F` [AVUTOMETINIB] the Kd was > 30 µM (inactive).
For `CCCS(=O)(=O)Nc1ccc(F)c(C(=O)c2c[nH]c3ncc(-c4ccc(Cl)cc4)cc23)c1F` [VEMURAFENIB], the Kd was > 30 µM (inactive).
